Assays:
[1] = molecular target: μ-opioid receptor (CHO hMOR) (Homo sapiens, UniProt P35372); type: binding
[2] = molecular target: δ-opioid receptor (CHO hDOR) (Homo sapiens, UniProt P41143); experiment: Opioid receptor binding assay, [3H]DADLE displacement in hDOR-CHO cell membranes; conditions: selectivity μ over δ, from Ki
[3] = molecular target: κ-opioid receptor (CHO hKOR) (Homo sapiens, UniProt P41145); type: binding
[4] = molecular target: μ-opioid receptor (hMOR-CHO) (Homo sapiens, UniProt P35372); experiment: biochemical; type: biochemical
μ-opioid receptor (hMOR-CHO), sequence (P35372 whole entry): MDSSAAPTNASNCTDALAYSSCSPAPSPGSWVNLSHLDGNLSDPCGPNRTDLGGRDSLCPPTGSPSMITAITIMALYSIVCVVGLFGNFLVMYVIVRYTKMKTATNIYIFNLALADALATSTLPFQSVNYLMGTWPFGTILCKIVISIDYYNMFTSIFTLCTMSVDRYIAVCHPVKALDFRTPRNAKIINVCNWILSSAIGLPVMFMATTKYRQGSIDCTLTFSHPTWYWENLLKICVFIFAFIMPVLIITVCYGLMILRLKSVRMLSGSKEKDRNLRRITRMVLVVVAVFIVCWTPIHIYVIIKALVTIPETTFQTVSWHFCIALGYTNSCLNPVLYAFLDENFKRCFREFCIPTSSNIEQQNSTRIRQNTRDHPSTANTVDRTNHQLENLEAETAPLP

[5] = molecular target: κ-opioid receptor (hKOR-CHO) (Homo sapiens, UniProt P41145); experiment: biochemical; type: biochemical
κ-opioid receptor (hKOR-CHO), sequence (P41145 whole entry): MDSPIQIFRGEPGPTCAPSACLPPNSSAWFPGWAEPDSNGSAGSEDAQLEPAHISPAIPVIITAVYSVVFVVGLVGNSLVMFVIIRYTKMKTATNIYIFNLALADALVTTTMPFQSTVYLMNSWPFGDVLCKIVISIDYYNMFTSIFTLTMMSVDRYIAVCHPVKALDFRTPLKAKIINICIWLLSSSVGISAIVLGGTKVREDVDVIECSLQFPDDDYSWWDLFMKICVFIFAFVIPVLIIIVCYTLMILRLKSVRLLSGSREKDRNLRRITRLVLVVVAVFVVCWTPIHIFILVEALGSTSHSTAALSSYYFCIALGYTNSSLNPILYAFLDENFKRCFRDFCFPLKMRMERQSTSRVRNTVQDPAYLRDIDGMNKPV

μ-opioid receptor (CHO hMOR), sequence (P35372 whole entry): as the sequence (P35372 whole entry) above
κ-opioid receptor (CHO hKOR), sequence (P41145 whole entry): as the sequence (P41145 whole entry) above
δ-opioid receptor (CHO hDOR), sequence (P41143 whole entry): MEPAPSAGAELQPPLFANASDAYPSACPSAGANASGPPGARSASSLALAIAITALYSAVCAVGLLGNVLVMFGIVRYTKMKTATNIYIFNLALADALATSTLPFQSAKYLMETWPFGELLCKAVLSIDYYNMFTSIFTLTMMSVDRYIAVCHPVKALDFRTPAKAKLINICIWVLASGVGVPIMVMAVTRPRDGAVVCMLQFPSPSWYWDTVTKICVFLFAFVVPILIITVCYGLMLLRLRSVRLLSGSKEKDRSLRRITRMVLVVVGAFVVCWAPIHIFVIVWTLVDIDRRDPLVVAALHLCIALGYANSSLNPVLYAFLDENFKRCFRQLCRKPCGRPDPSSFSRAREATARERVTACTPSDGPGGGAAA

Compound: Oc1cccc2c1O[C@@H]1CN(CCc3ccccc3)[C@@H]3CCC[C@]21C3 (relative stereo) [Cmpd 12, (3R*,6aS*,11aS*)-2-Phenethyl-2,3,4,5,6,11a-hexahydro-1H -3,6a-methanobenzofuro[2,3-c]azocin-10-ol]
- μ affinity relative to morphine [1]: two to three times the affinity of morphine
- fold less affinity for δ-receptors than for the μ-receptor [2]: about 1200 fold
- fold less affinity for κ-receptors than for the μ-receptor [3]: about 50 fold
- Kb [4]: 0.71 ± 0.09 nM
- potency as μ-opioid antagonist relative to naloxone [4]: more than three times as potent as naloxone
- Kb [5]: 1.79 ± 0.51 nM
- κ-opioid antagonist potency relative to norBNI [5]: one tenth the potency of norBNI

Source: PMC3115714 (Bioorganic & medicinal chemistry, 2011)
